In patent publication US20220402882A1, “HERBICIDAL COMPOUNDS” (SYNGENTA CROP PROTECTION AG, priority 2019, published 2022):

Tests used:
IPOHE = test: Comparative experiment, POST application; type: in vivo, Ipomoea hederacea
Procedure: (§1) A comparative experiment is conducted to show the advantage provided by the compounds of the present invention. Thus the biological performance of representative compounds […] Compound 4-460 of the type referred to in WO2012/028579. Results are given as (%) phytotoxicity observed.

SETFA = test: Comparative experiment, POST application; type: in vivo, Setaria faberi
Procedure: as §1

DIGSA = test: Comparative experiment, POST application; type: in vivo
Procedure: as §1

ZEAMX/maize = test: Comparative experiment, POST application; type: in vivo; conditions: crop
Procedure: as §1

AMARE = test: Comparative experiment, POST application; type: in vivo, Amaranthus retoflexus
Procedure: as §1

ECHCG = test: Comparative experiment, POST application; type: in vivo, Echinochloa crus-galli
Procedure: as §1

ABUTH = test: Comparative experiment, POST application; type: in vivo, Abutilon theophrasti
Procedure: as §1

[1] = tested on: Amaranthus retoflexus (AMARE); test: Post-emergence glasshouse herbicide test; type: in vivo; conditions: 125 g/h, evaluated after 13 days
Method in brief: (§2)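 Plants grown in standard soil in pots in a glasshouse (24/16 °C day/night, 14 h light, 65% humidity) were sprayed 1 day after sowing (pre-emergence) or after 8 days (post-emergence) at 125 g/h unless otherwise indicated. Percentage damage was assessed after 13 days and scored on a five-point scale (5=80-100%, 1=0-19%).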

Setaria faberi (SETFA) [2] = test: Post-emergence glasshouse herbicide test; type: in vivo; conditions: 125 g/h, evaluated after 13 days
Method in brief: as §2

[3] = tested on: Ipomoea hederacea (IPOHE); test: Post-emergence glasshouse herbicide test; type: in vivo; conditions: 125 g/h, evaluated after 13 days
Method in brief: as §2

[4] = tested on: Abutilon theophrasti (ABUTH); test: Post-emergence glasshouse herbicide test; type: in vivo; conditions: 125 g/h, evaluated after 13 days
Method in brief: as §2

[5] = tested on: Echinochloa crus-galli (ECHCG); test: Post-emergence glasshouse herbicide test; type: in vivo; conditions: 125 g/h, evaluated after 13 days
Method in brief: as §2

[6] = tested on: Amaranthus retoflexus (AMARE); test: Pre-emergence glasshouse herbicide test; type: in vivo; conditions: 125 g/h, evaluated after 13 days
Method in brief: as §2

Setaria faberi (SETFA) [7] = test: Pre-emergence glasshouse herbicide test; type: in vivo; conditions: 125 g/h, evaluated after 13 days
Method in brief: as §2

[8] = tested on: Ipomoea hederacea (IPOHE); test: Pre-emergence glasshouse herbicide test; type: in vivo; conditions: 125 g/h, evaluated after 13 days
Method in brief: as §2

[9] = tested on: Abutilon theophrasti (ABUTH); test: Pre-emergence glasshouse herbicide test; type: in vivo; conditions: 125 g/h, evaluated after 13 days
Method in brief: as §2

[10] = tested on: Echinochloa crus-galli (ECHCG); test: Pre-emergence glasshouse herbicide test; type: in vivo; conditions: 125 g/h, evaluated after 13 days
Method in brief: as §2

Row | SMILES | (%) phytotoxicity observed, IPOHE (IPOHE; rate 15 g/ha) [%] | (%) phytotoxicity observed, IPOHE (IPOHE; rate 30 g/ha) [%] | (%) phytotoxicity observed, SETFA (SETFA; rate 15 g/ha) [%] | (%) phytotoxicity observed, SETFA (SETFA; rate 30 g/ha) [%] | (%) phytotoxicity observed, DIGSA (DIGSA; rate 15 g/ha) [%] | (%) phytotoxicity observed, DIGSA (DIGSA; rate 30 g/ha) [%] | (%) phytotoxicity observed, ZEAMX (ZEAMX/maize; rate 15 g/ha) [%] | (%) phytotoxicity observed, ZEAMX (ZEAMX/maize; rate 30 g/ha) [%] | (%) phytotoxicity observed, AMARE (AMARE; rate 15 g/ha) [%] | (%) phytotoxicity observed, AMARE (AMARE; rate 30 g/ha) [%] | (%) phytotoxicity observed, ECHCG (ECHCG; rate 15 g/ha) [%] | (%) phytotoxicity observed, ECHCG (ECHCG; rate 30 g/ha) [%] | (%) phytotoxicity observed, ABUTH (ABUTH; rate 15 g/ha) [%] | (%) phytotoxicity observed, ABUTH (ABUTH; rate 30 g/ha) [%] | percentage damage caused to the plant, AMARE [1] | percentage damage caused to the plant, SETFA (Setaria faberi (SETFA) [2]) | percentage damage caused to the plant, IPOHE [3] | percentage damage caused to the plant, ABUTH [4] | percentage damage caused to the plant, ECHCG [5] | percentage damage caused to the plant, AMARE [6] | other results
1 | Cn1nnnc1NC(=O)c1ccc(C(F)(F)F)c(S(C)(=O)=O)c1Cl [Compound 4-640, reference compound] | 90 | 90 | 90 | 90 | 80 | 80 | 40 | 70 | 90 | 90 | 80 | 90 | 90 | 90 | – | – | – | – | – | – | –
2 | Cn1nnnc1NC(=O)c1ccc(OC(F)F)c(S(C)(=O)=O)c1Cl [Compound 1.003, 2-chloro-4-(difluoromethoxy)-3-methylsulfonyl-N-(1-methyltetrazol-5-yl)benzamide] | 100 | 100 | 80 | 90 | 80 | 80 | 0 | 0 | 100 | 100 | 90 | 90 | 90 | 100 | 5 (5=80-100%) | 5 (5=80-100%) | 5 (5=80-100%) | 5 (5=80-100%) | 5 (5=80-100%) | 5 (5=80-100%) | percentage damage caused to the plant, SETFA (Setaria faberi (SETFA) [7]): 5 (5=80-100%); percentage damage caused to the plant, IPOHE [8]: 1 (1=0-19%); percentage damage caused to the plant, ABUTH [9]: 5 (5=80-100%); percentage damage caused to the plant, ECHCG [10]: 5 (5=80-100%)
3 | CCSc1c(OC(F)F)ccc(C(=O)Nc2nnnn2C)c1C [Compound 1.028] | – | – | – | – | – | – | – | – | – | – | – | – | – | – | 5 (5=80-100%) | 5 (5=80-100%) | 5 (5=80-100%) | 5 (5=80-100%) | 5 (5=80-100%) | 5 (5=80-100%) | percentage damage caused to the plant, SETFA (Setaria faberi (SETFA) [7]): 5 (5=80-100%); percentage damage caused to the plant, IPOHE [8]: 3 (3=40-59%); percentage damage caused to the plant, ABUTH [9]: 5 (5=80-100%); percentage damage caused to the plant, ECHCG [10]: 5 (5=80-100%)
